The source of these data is patent US6953786B2, “Compositions comprising plant-derived polyphenolic compounds and inhibitors of reactive oxygen species and methods of using thereof” (The Regents of the University of California, priority 2002, dated 2005).

In one assay the test system is cytochrome c. Description: Mitochondrial cytochrome c release (Western blot). The following applies: BSp73AS, 6 hours, 100 μM. Format: cell-based, rat. The protocol:
In order to determine the effects polyphenolic compounds have on mitochondrial cytochrome c release and apoptosis, the following assay was conducted. BSp73AS cells were cultured for 6 hours and Mia PACA-2 cells were cultured in the absence of serum or growth factors for 24 hours in the absence or presence of 100 μM of each rutin, trans-resveratrol, genistein, or quercetin. Cells were washed twice with ice-cold PBS, pH 7.2 and resuspended in extraction buffer, about 500 μl, comprising 20 mM HEPES-KOH (pH 7.0), 10 mM KCl, 1 mM […], 2 mM MgCl2, 1 mM EDTA, 1 mM DTT, 250 mM sucrose, 1 mM PMSF and protease inhibitors cocktail as provided above. The lysate was incubated for 30 minutes on ice and then homogenized using a glass dounce (80 strokes). Nuclei were removed by centrifugation at 1,000 g for 10 minutes at 4° C. Supernatant was additionally centrifuged for 1 hour at 100,000 g and the resulting supernatant (cytosolic fraction) and pellet (mitochondrial fraction) were collected separately, subjected to SDS-PAGE, and Western blotting using an antibody against cytochrome c. The experiment was repeated twice with similar results.
(Immunoblotting shows a protein as a band on a membrane.)

Another assay deals with Mia PACA-2 cells. The experiment in a line: Mitochondrial membrane potential, DiOC6(3) retention. The class given is cell-based, human. The procedure: (§1) In order to determine the effects polyphenolic compounds have on mitochondrial membrane potential, the retention of the dye 3,3′-dihexyloxacarbocyanine (DiOC6(3)) was measured as described by Pastorino J G, et al. (1998) J Biol Chem 273:7770-7775, which is herein incorporated by reference. BSp73AS cells were cultured for 6 hours in the absence (control) or presence of 0, 12, 24, 50, and 100 μM quercetin and trans-resveratrol. The cells were loaded with 1 μM DiOC6(3) during the last 30 minutes of treatment with a polyphenolic compound (or vehicle). The cells were then collected and pelleted by centrifugation. The supernatant was removed and the pellet was washed twice with PBS by alternate centrifugation and resuspension. The pellet was then lysed by addition of 1 ml of H2O and homogenized. The concentration of DiOC6(3) was read on a Perkin-Elmer LS-5 fluorescence spectrometer at 488 nm excitation and 500 nm emission. An aliquot of the cells was used for determining the DiOC6(3) fluorescence that was retained by the cells.
Mia PACA-2 cells were cultured for 72 hours in the presence of serum and trans-resveratrol or genistein in the presence or absence of DPI or Tiron. Mitochondrial membrane potential was measured as described above.

A further assay relates to BSp73AS cells. The assay is described as above. The class given is cell-based, rat. The following applies: 6 hours (FIG. 10A). The procedure:
as §1

For another assay, the system named is NF-κB. Description: NF-κB DNA binding activity (EMSA / gel shift). The class given is cell-based, human. The following applies: for NF-κB activation (DNA binding): Mia PACA-2, 24 hours, no serum, polyphenols 100 μM, MG-132 20 μM; for NF-κB activation caused by serum: Mia PACA-2, 72 hours, with serum, DPI 15 μM, trans-resveratrol 100 μM, genistein 100 μM, LY294002 50 μM. The protocol:
In order to determine the role of activated NF-κB in the regulation of apoptosis caused by the polyphenolic compound, the following assay was conducted. BSp73AS cells were cultured for 6 hours and Mia PACA-2 cells were cultured in the absence of serum or growth factors for 24 hours in the absence (controls) or presence of rutin, quercetin, trans-resveratrol, or genistein, each at 100 μM and 20 μM proteosome inhibitor MG-132. Nuclear proteins were isolated and analyzed for NF-κB DNA binding activity with electrophoretic mobility shift assay (EMSA).
Specifically, aliquots of nuclear extracts with equal amount of protein, about 2 to about 10 μg, were mixed in 20 μl reactions with a buffer comprising 10 mM HEPES (pH 7.6), 50 mM KCl, 0.1 mM EDTA, 1 mM DTT, 10% (vol/vol) glycerol and 3 μg poly[d (I-C)]. After aliquots were equilibrated on ice for 5 minutes, binding reactions were stared by addition of 20-60,000 counts/min (20 fM) of ^32P-labeled DNA probes and allowed to proceed for 25-30 minutes at room temperature or up to 1 hour on ice. The oligonucleotide probe
containing the κB binding motif (underlined) was annealed to the complementary oligonucleotide with a 5′-G overhang and end-labeled using Klenow DNA polymerase I. The samples were electrophoresed at room temperature in 0.5×TBE buffer (1×TBE 89 mM Tris base, 89 mM boric acid and 2 mM EDTA) on nondenaturing 4.5% polyacrylamide gel at 200 V. Gels were dried and directly analyzed in the PhosphorImager (Molecular Dynamics, Sunnyvale, Calif.). The experiment was repeated twice.
To study the effects of combinations of DPI and polyphenolic compounds on serum-induced activation of NF-κB and protection from apoptosis, the following assay was conducted. Mia PACA-2 cells were cultured for 72 hours in the presence of serum with or without 100 μM trans-resveratrol, 15 μM DPI, a combination of trans-resveratrol, 100 μM genistein, or a combination of genistein and DPI. NF-κB binding activity was measured in nuclear extracts by gel shift assay as described above.
To determine the effects of LY29400 and DPI on NF-κB activation, Mia PACA-2 cells were cultured for 72 hours in the presence of serum and 15 μM DPI with or without 50 μM LY294002. NF-κB DNA binding activity was measured in nuclear extracts by gel shift assay as described above.
On the technique in general: In EMSA bound probe runs differently from free probe, usually more slowly.

Where [1] appears, read: Mia PACA-2, 72 hours, in the presence of serum (FIG. 11).
[2] abbreviates: Mia PACA-2, no serum (FIG. 10B).

As to `O=c1c(-c2ccc(O)cc2)coc2cc(O)cc(O)c12` [genistein], in the assay with cytochrome c, the “cytosolic and mitochondrial cytochrome c” value is “caused increases in cytosolic cytochrome c and decreases in mitochondrial cytochrome c”. In addition, the mitochondrial membrane potential result in the assay with Mia PACA-2 cells (setting [1]) was “no effects on mitochondrial membrane potential”; with Mia PACA-2 cells (setting [2]) it was “caused dissipation of the mitochondrial membrane potential”; with BSp73AS cells it was “caused dissipation of the mitochondrial membrane potential”. Moreover, the “NF-κB activation (DNA binding)” value with NF-κB is “has no effect on NF-κB”. In the assay on NF-κB, the “NF-κB activation caused by serum” value is recorded as “not inhibited”.
Regarding `O=c1c(O)c(-c2ccc(O)c(O)c2)oc2cc(O)cc(O)c12` [quercetin], the “cytosolic and mitochondrial cytochrome c” value in the assay with cytochrome c was “caused increases in cytosolic cytochrome c and decreases in mitochondrial cytochrome c”. Moreover, the mitochondrial membrane potential entry in the assay with Mia PACA-2 cells (setting [2]) and in the assay with BSp73AS cells was “caused dissipation of the mitochondrial membrane potential” in each case. Besides, the “NF-κB activation (DNA binding)” value in the assay with NF-κB is listed as “inhibit NF-κB activation”.
With `Oc1ccc(/C=C/c2cc(O)cc(O)c2)cc1` [trans-resveratrol], in the assay with cytochrome c, the “cytosolic and mitochondrial cytochrome c” value was “caused increases in cytosolic cytochrome c and decreases in mitochondrial cytochrome c”. Also, the mitochondrial membrane potential result with Mia PACA-2 cells (setting [1]) is reported as “no effects on mitochondrial membrane potential”; in the assay on Mia PACA-2 cells (setting [2]), “caused dissipation of the mitochondrial membrane potential”; in the assay on BSp73AS cells it was “caused dissipation of the mitochondrial membrane potential”. The “NF-κB activation (DNA binding)” value in the assay on NF-κB is “inhibit NF-κB activation”. The “NF-κB activation caused by serum” value in the assay with NF-κB is on record as “not inhibited”.
